Laboratory results: patent US20120276245A1, “METHOD FOR IMPROVED FERMENTATION” (STICHTING TOP INSTITUTE FOOD AND NUTRITION, priority 2009, published 2012)
Like-named read-outs stand apart in the source and are kept apart here.

Key:
S. thermophilus = experiment: Intervention study: acidification and growth of S. thermophilus mono-culture in reconstituted skim milk; format: cell-based, Streptococcus thermophilus; conditions: for Acidification by S. thermophilus: mono-culture in reconstituted skim milk, 37° C., 19 h, compounds listed in decreasing order of stimulation: formic acid, pyruvic acid, folic acid, Tween-20; for Growth of S. thermophilus in monoculture: in the absence of Lactobacillus bulgaricus
Method: (§1) Cultures of S. thermophilus, L. bulgaricus and a mixed culture were prepared in 0.8 volume reconstituted skim milk with 0.2 volume of a solution with compounds: Na-pyruvate (1.82 mM), Na-formate (1.47 mM), folic acid (1 mM), nucleobases (10 mg/L each) (all representing purine and pyrimidine metabolism), Tween-20 (105.9 μM) (as a supply of lauric acid), Tween-80 (110 mg/L) (as a supply of oleic acid). Here after these compounds are referred to as ‘interaction compounds’. The LCFAs oleic acid and lauric acid are poorly soluble and therefore we used Tween-20 and Tween-80. The effect of each of all interaction compounds on growth and acidification was tested in a single addition and a single omission strategy. Paired comparisons were made of a single compound versus nothing added (neg. control), and of all compounds minus one added versus all (pos. control). Acidification of quadruplicate cultures of 250 μL, was measured at 37° C. for 19 h in hydroplates (PreSens—Precision Sensing GmbH, Germany) where after CFU counts were determined using a rapid miniplating method (36). Significant differences in acidification were determined by comparing the maximal acidification rate using a two-tailed Students t-test (p=0.05). Similarly, significant differences were calculated between the final pH values and between the colony-forming units. A higher cell count, lower final pH, higher acidification rate and a shorter time to reach this rate are considered stimulatory effect of the intervention compared to the control.

L. bulgaricus = experiment: Intervention study: acidification of L. bulgaricus mono-culture in reconstituted skim milk; format: cell-based, Lactobacillus delbrueckii subsp. bulgaricus; conditions: 37° C., 19 h
Method: as §1

[1] = test system: genes involved in biosynthesis of purines and folic acid cycling; conditions: formic acid supplied, both species
Excerpt: (§2) Microarrays were spotted on the Agilent 8x 15K platform (Agilent Technologies, Santa Clara, Calif., USA) with a custom probe design (AMADID 015342) comprising the sequences of both S. thermophilus CNRZ1066 (released by NCBI, genbank accession no. NC 006449) and L. bulgaricus ATCC BAA-365 (released by JGI, genbank accession no. NC 008529). The probes were designed with the objective to minimize cross-hybridization: the probes were species-specific, i.e. all probes were designed as 60-mers with a target score of 100% to the target gene, allowing no binding of cDNA that is 1 base different (mismatch) if the correct hybridization temperature (65° C.) and washing temperature (37° C.) are used. In total there are 5438 probes representing 1899 genes of S. thermophilus and 4028 spots representing 1709 genes of L. bulgaricus. Most genes are represented by 3 probes or more. Only 55 genes in S. thermophilus and 77 in L. bulgaricus are represented by one probe and only 5 genes of S. thermophilus and 31 genes of L. bulgaricus are lacking. The selectivity of strain specific gene detection was tested by a series of transcriptome profiling experiments of samples from MRS-grown mono-cultures of both strains. […] They were excluded from further analysis.
(§3) The high protein content of milk and the polysaccharide production by the grown microorganisms make cell harvesting problematic. Furthermore, sampling and quenching need to be carried out rapidly in order to prevent the introduction of technical errors in a transcriptomics experiment. Several procedures have been developed to “clear” the milk to enable cell harvest by centrifugation without the contamination with milk solids. However, milk cleaning procedures are time consuming and require drastic changes in pH and the addition of large quantities of sodium citrate.

[2] = test system: pfl (pyruvate formate lyase gene); conditions: mixed culture supplemented with formic acid
Excerpt: as §2, §3

[3] = test system: pflA (pyruvate formate lyase gene); conditions: mixed culture supplemented with formic acid
Excerpt: as §2, §3

[4] = test system: mixed culture of S. thermophilus and L. bulgaricus; experiment: Intervention study: acidification of mixed culture in reconstituted skim milk; format: cell-based; conditions: 37° C., 19 h, stimulatory effects less than with the mono-cultures
Method: as §1, with “A higher cell count, lower final pH, higher acidification rate and a shorter time to reach this rate are considered stimulatory effect of the intervention compared to the control.” left out

Compound: Nc1nc2ncc(CNc3ccc(C(=O)N[C@@H](CCC(=O)O)C(=O)O)cc3)nc2c(=O)[nH]1 [folic acid]
- Acidification by S. thermophilus (S. thermophilus): stimulated
- Growth of S. thermophilus in monoculture (S. thermophilus): stimulate growth
- L. bulgaricus acidification (L. bulgaricus): small stimulatory effect

Compound: O=CO [formic acid]
- Acidification by S. thermophilus (S. thermophilus): stimulated
- Expression of genes involved in biosynthesis of purines and folic acid cycling ([1]; early (second) exponential phase): lower
- Expression of genes involved in biosynthesis of purines and folic acid cycling ([1]; mid exponential phase): higher
- Expression of pfl down-regulated when formic acid was supplied [2]: 3.8 fold
- Expression of pflA down-regulated when formic acid was supplied [3]: 5.7 fold
- L. bulgaricus acidification (L. bulgaricus): stimulated the most
- Acidification of the mixed cultures [4]: still stimulated

Compound: CC(=O)C(=O)O [pyruvic acid]
- Acidification by S. thermophilus (S. thermophilus): stimulated
- Growth of S. thermophilus in monoculture (S. thermophilus): stimulate growth
- L. bulgaricus acidification (L. bulgaricus): small stimulatory effect
- Acidification of the mixed cultures [4]: still stimulated

Compound: Tween-20
- Acidification by S. thermophilus (S. thermophilus): stimulated
- Growth of S. thermophilus in monoculture (S. thermophilus): stimulate growth
- L. bulgaricus acidification (L. bulgaricus): small stimulatory effect

Compound: Tween-80
- L. bulgaricus acidification (L. bulgaricus): small stimulatory effect
